Like-named read-outs stand apart in the source and are kept apart here. Each block holds one compound with its values, some of them ahead of it.
Tests used:
[1] = system: L. donovani intracellular amastigotes in B10R cells; test: UCSD L. donovani infection assay (Assay Conditions D); format: cell-based; details: B10R cells; for L. donovani amastigotes EC75 (B10R cells): footnote d
Procedure, shortened: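 Compounds, either single-point at 10 μM or 10-point 2-fold series (3 technical, 2 biological replicates), were incubated 72 h at 37° C. with B10R host cells co-seeded with day-7 stationary L. donovani promastigotes (20:1). DAPI-stained nuclei imaging yielded intracellular parasite EC50 and host-cell CC50.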

[2] = system: L. braziliensis (strain BA788) in J774 cells; test: J774 luciferase infection assay (Assay Conditions E); format: cell-based, Leishmania braziliensis; details: for L. braziliensis amastigotes EC75 (J774 cells): footnote e
Description: Assay Conditions E: J774 cells (ATCC J774A.1 were grown in DMEM supplemented with 10% Fetal Bovine Serum (FBS) and 1% Penicillin-Streptomycin at 37° C. in 5% CO2. Leishmania parasites expressing luciferase and GFP were grown as described in Front. Cell. Infect. Microbiol (2019) 9:237. J774 cells were seeded in microwell plates at 3×10^5 cells/mL density. Cells were washed with PBS and incubated with complete DMEM medium containing stationary phase Leishmania promastigotes (L. major: strain Friedlin; L. braziliensis, strain BA788) at a 1:10 parasite-cell ratio for 24 h. Cells were washed with PBS. Cells and compounds were incubated for 48 h at 37° C. and 5% C02. Compounds were tested in 8-point 2-fold serial dilution in 4 technical replicates, and 2 biological replicates. After 48 h, OneTiterGlo (Promega) (100 μl) was added to each well. Plates were incubated for 15 min and bioluminescence was measured using a plate reader (Molecular Devices). Effective concentration inducing 75% activity (EC75) was calculated using GraphPad Prism Software (version 9.0).

[3] = UCSD infection assay, host cell cytotoxicity (CC50); format: cell-based; details: mouse, B10R host cells infected with L. donovani
Description: (§1) Assay Conditions D: B10R cells (CVCL_0155) were seeded at 300 cells/well, and L. donovani WT promastigotes in stationary phase (7th day after passage) were added at 6,000 parasites/well (ratio of 20 parasites/cell). Both cells and parasites were seeded in DMEM High-Glucose medium (Gibco, cat. no. 11995065) containing 5% Fetal Bovine Serum (Sigma-Aldrich, cat. no. F2442) and 1% Penicillin-Streptomycin (Gibco, cat. no. 15140122). Cells and parasites were incubated in the presence of the compounds for 72 h at 37° C. and 5% C02. Plates were then fixed with 4% formaldehyde solution for at least 1 h, then washed with 1×PBS and stained with 5 μg/mL DAPI. Plates were read using an ImageXpress microscope (Molecular Devices) and analyzed by MetaXpress software (Molecular Devices) using a custom module optimized for this assay. […] Compounds were tested in a 10-point 2-fold serial dilution in 3 technical replicates, and 2 biological replicates. After 72 h, plates were fixed and stained with DAPI as described above. Images were acquired on an ImageXpress microscope, and analyzed using the MetaXpress custom module.
as §1, with “Compounds were obtained as 0.2 μmoles of dried film for primary single point screening. Each compound was diluted in DMSO to 10 μM final testing concentration. These compounds were tested in 2 biological replicates. The compounds were pre-spotted onto 384-well assay plates in single concentration.” for “Assay Conditions D:”, “CO2.” for “C02.”, “module. The DRCs were plotted, half-effective concentration (EC50) and half-cytotoxic concentration (CC50) were calculated using GraphPad Prism Software, version 6.05 (GraphPad Software, San Diego, CA).” for “module.”

[4] = system: L. donovani intracellular amastigotes infecting THP-1 cells; test: High content intracellular amastigote assay in THP-1 cells (Assay Conditions B; CDIPD screen); format: cell-based, Leishmania donovani
Description: (§2) Assay Conditions B: THP-1 cells (human acute monocytic leukemia cell line—ATCC TIB202) were grown in RPMI supplemented with 10% Fetal Bovine Serum (FBS) and 50 μM 2-mercaptoethanol at 37° C. in 5% CO2. THP-1 were seeded in microwell plates at 5×10^5 cells/mL density and treated with 0.1 μM phorbol myristate acetate (PMA, Sigma) at 37° C. for 48 h for differentiation into adherent, non-dividing macrophages. After activation by PMA, cells were washed and incubated with complete RPMI medium containing stationary phase Leishmania promastigotes (L. major: strain LV39; L. donovani, strain 1S/Cl2D) at a 1:15 parasite-cell ratio. Compounds were added and incubated at 37° C. for 72 h. Cells were then washed with phosphate-buffered saline (PBS), fixed for 30 minutes with 4% formaldehyde, rinsed again with PBS, stained for 2 h with 4′,6′-diamidino-2-phenylindole (DAPI 300 nM) and finally washed with PBS. In a collaborative effort to identify new antileishmanial chemotypes with minimal host cell cytotoxicity, compounds from the Boston University Center for Molecular Discovery (BUCMD) screening collection were assessed in a phenotypic, high content primary screen at the University of California's Center for Discovery and Innovation in Parasitic Diseases (CDIPD) for the ability to inhibit growth of L. donovani intracellular amastigotes infecting THP-1 cells. […] Dose-response testing in L. donovani (both intracellular amastigotes and promastigotes) confirmed concentration-dependent growth inhibition of both morphologies of the parasite at low micromolar EC50 values for both compounds (Table 1).

THP-1 cells = test: Host THP-1 cell cytotoxicity in the CDIPD high content screen; format: cell-based, human; details: Homo sapiens, THP-1; 10 μM; footnote b; read-out: THP-1 host cell % growth inhibition at 10 μM
Description: as §2

[5] = system: L. donovani intracellular amastigotes infecting THP-1 macrophages; test: GSK intramacrophage L. donovani assay (LD AMMAC, inMac; Assay Conditions C); format: cell-based; details: Leishmania donovani; values marked c: THP-1 cells; read-out: L. donovani amastigotes EC50 (μM, THP-1 or B10R cells)
Procedure, shortened: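 EC50 values come from counting amastigotes per infected THP-1 macrophage (AMMAC). Parallel read-outs give percentage of infected cells per well (INFCELL) and a macrophage-number toxicity EC50 (MAC).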

[6] = GSK inMac assay, host cell toxicity readout (LD MAC); format: cell-based, human; details: human
Procedure, shortened: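 MAC EC50 reflects THP-1 host cell counts, measured within GSK's inMac L. donovani infection assay that also scores intracellular amastigotes and infected-cell percentage.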

SMILES: COc1ncc(N2C(=O)c3[nH]nc(CC(C)C)c3C2c2ccc(F)cc2C)cc1F (centres unmarked) [BUCMD00729]
- L. donovani amastigotes EC75 (B10R cells) [1]: 0.4 µM
- L. braziliensis amastigotes EC75 (J774 cells) [2]: 2.0 µM
- CC50 at 72 h ([3]; footnote d): 6.31 µM

SMILES: COc1ccc(N2C(=O)c3[nH]nc(CC(C)C)c3C2c2ccc(F)cc2Cl)cn1 (centres unmarked) [BUCMD00684]
- L. donovani amastigotes EC75 (μM, B10R cells) [1]: >10 µM
- L. braziliensis amastigotes EC75 (μM, J774 cells) [2]: 10.0 µM

SMILES: COc1ccc(N2C(=O)c3[nH]nc(CC(C)C)c3C2c2sccc2C)cn1 (centres unmarked) [BUCMD00690]
- L. donovani amastigotes EC75 (μM, B10R cells) [1]: 9.7 µM
- L. braziliensis amastigotes EC75 (μM, J774 cells) [2]: >10 µM

SMILES: C#CCCCCOc1ccc(C2c3c(CC(C)C)n[nH]c3C(=O)N2c2ccc(OC)nc2)c(Cl)c1 (centres unmarked) [BUCMD00738]
- L. donovani amastigotes EC75 (μM, B10R cells) [1]: >10 µM
- L. braziliensis amastigotes EC75 (μM, J774 cells) [2]: >10 µM
- CC50 at 72 h ([3]; host B10R cells): 7.94 µM

SMILES: Cc1cc(N2C(=O)c3[nH]nc(CC(C)C)c3C2c2ccccc2Cl)ccn1 (centres unmarked) [BUCMD00639]
- L. donovani amastigotes EC75 (B10R cells) [1]: 0.4 µM
- L. braziliensis amastigotes EC75 (J774 cells) [2]: >10 µM
- CC50 at 72 h ([3]; footnote d): 20 µM

SMILES: COc1ccc(N2C(=O)c3[nH]nc(CC(C)C)c3C2c2ccc(C)cc2)cc1 (centres unmarked) [CMLD007430]
- L. donovani amastigotes % GI at 10 μM (THP-1 cells) ([4]; 10 μM, THP-1 cells, footnote b): 0.0%
- inhibition at 10 µM ([4]; Leishmania donovani, THP-1, read-out: inhibition at 10 μM (initial screening)): 0%
- inhibition at 10 µM (THP-1 cells): < 10%

SMILES: COc1ccc(N2C(=O)c3[nH]nc(CC(C)C)c3C2c2ccc(F)cc2F)cn1 (centres unmarked) [BUCMD00688]
- L. donovani amastigotes EC75 (μM, B10R cells) [1]: 3.3 µM
- L. braziliensis amastigotes EC75 (μM, J774 cells) [2]: >10 µM

SMILES: CC(C)Cc1n[nH]c2c1C(c1ccc(F)cc1Br)N(c1ccc(F)nc1)C2=O (centres unmarked) [BUCMD00650]
- L. donovani amastigotes EC75 (μM, B10R cells) [1]: >10 µM
- L. braziliensis amastigotes EC75 (μM, J774 cells) [2]: 9.0 µM

SMILES: C#CCCOc1ccc(C2c3c(CC(C)C)n[nH]c3C(=O)N2c2ccc(OC)cc2)c(Cl)c1 (centres unmarked) [BUCMD00728]
- L. donovani amastigotes EC75 (μM, B10R cells) [1]: >10 µM
- L. braziliensis amastigotes EC75 (μM, J774 cells) [2]: >10 µM

- EC50 [5]: 4 µM
SMILES: CC(C)Cc1n[nH]c2c1C(c1c(Cl)cccc1Cl)N(c1ccc(N(C)C)cc1)C2=O (centres unmarked) [CMLD011553]
- L. donovani amastigotes EC75 (μM, B10R cells) [1]: 3.0 µM
- CC50 at 72 h ([3]; host B10R cells): 5.01 µM
- CC50 ([6]; host THP-1 cells): 20 µM

SMILES: Cc1cc(F)ccc1C1c2c(CC(C)C)n[nH]c2C(=O)N1c1cnn(C(C)C)c1 (centres unmarked) [BUCMD00673]
- L. donovani amastigotes EC75 (μM, B10R cells) [1]: >10 µM
- L. braziliensis amastigotes EC75 (μM, J774 cells) [2]: >10 µM

SMILES: Cc1cc(F)ccc1C1c2c(CC(C)C)n[nH]c2C(=O)N1c1ccc(Br)cc1 (centres unmarked) [CMLD011565]
- L. donovani amastigotes EC75 (B10R cells) [1]: 0.1 µM
- EC50 ([1]; Leishmania donovani, values marked d, read-out: L. donovani amastigotes EC50 (B10R cells)): 0.1 µM
- L. braziliensis amastigotes EC75 (J774 cells) [2]: 5.0 µM
- CC50 at 72 h ([3]; footnote d): 3.98 µM
- CC50 ([6]; footnote c, read-out: THP-1 Host Cell CC50): 3 µM

SMILES: Cc1ccccc1C1c2c(CC(C)C)n[nH]c2C(=O)N1c1ccc(F)nc1 (centres unmarked) [BUCMD00651]
- L. donovani amastigotes EC75 (μM, B10R cells) [1]: 6.3 µM
- L. braziliensis amastigotes EC75 (μM, J774 cells) [2]: >10 µM

Reference: patent publication US20230381142A1, “ANTILEISHMANIAL COMPOUNDS, COMPOSITIONS AND USE THEREOF” (TRUSTEES OF BOSTON UNIVERSITY, priority 2022, published 2023)
